Assay results: PMC12171682, “Saarvienin A—A Novel Glycopeptide with Potent Activity against Drug‐Resistant Bacteria” (Angewandte Chemie (International Ed. in English), 2025)
Converted amounts (≈) assume the structure as drawn. Where two headings read alike, the source gives them in different places. Values belong to the compound of their own block, whether it stands above or below them.

Key:
[1] = test system: vancomycin‐resistant E. faecium clinical isolates with reduced susceptibility to daptomycin (n = 26)
[2] = test system: E. faecalis ATCC 29212; conditions: reference strain in Table S5; broth microdilution, MHB II, 37 °C, 24 h; daptomycin with 50 µg/mL Ca2+; mean of two independent experiments
[3] = test system: E. faecalis ATCC 29212; assay: microbe, parasite or virus in culture; conditions: Enterococcus faecalis, ATCC29212, 24 h, read-out: MIC, E. faecalis ATCC29212

MIC50 ([1]; 26 VRE E. faecium clinical isolates, broth microdilution, MHB II, daptomycin with 50 µg/mL Ca2+, mean of two independent experiments): 64 µg/mL
MIC, Enterococcus faecium isolate 1 ([1]; clinical isolate 1, broth microdilution, MHB II, 37 °C, 24 h, daptomycin with 50 µg/mL Ca2+, mean of two independent experiments): 64 µg/mL
MIC, Enterococcus faecium isolate 2 ([1]; clinical isolate 2, broth microdilution, MHB II, 37 °C, 24 h, daptomycin with 50 µg/mL Ca2+, mean of two independent experiments): 32 µg/mL
MIC, Enterococcus faecium isolate 3 ([1]; clinical isolate 3, broth microdilution, MHB II, 37 °C, 24 h, daptomycin with 50 µg/mL Ca2+, mean of two independent experiments): 2 µg/mL
MIC, Enterococcus faecium isolate 4 ([1]; clinical isolate 4, broth microdilution, MHB II, 37 °C, 24 h, daptomycin with 50 µg/mL Ca2+, mean of two independent experiments): 2 µg/mL
MIC, Enterococcus faecium isolate 5 ([1]; clinical isolate 5, broth microdilution, MHB II, 37 °C, 24 h, daptomycin with 50 µg/mL Ca2+, mean of two independent experiments): > 64 µg/mL
MIC, Enterococcus faecium isolate 6 ([1]; clinical isolate 6, broth microdilution, MHB II, 37 °C, 24 h, daptomycin with 50 µg/mL Ca2+, mean of two independent experiments): 64 µg/mL
MIC, Enterococcus faecium isolate 7 ([1]; clinical isolate 7, broth microdilution, MHB II, 37 °C, 24 h, daptomycin with 50 µg/mL Ca2+, mean of two independent experiments): 32 µg/mL
MIC, Enterococcus faecium isolate 8 ([1]; clinical isolate 8, broth microdilution, MHB II, 37 °C, 24 h, daptomycin with 50 µg/mL Ca2+, mean of two independent experiments): 64 µg/mL
MIC, Enterococcus faecium isolate 9 ([1]; clinical isolate 9, broth microdilution, MHB II, 37 °C, 24 h, daptomycin with 50 µg/mL Ca2+, mean of two independent experiments): > 64 µg/mL
MIC, Enterococcus faecium isolate 10 ([1]; clinical isolate 10, broth microdilution, MHB II, 37 °C, 24 h, daptomycin with 50 µg/mL Ca2+, mean of two independent experiments): > 64 µg/mL
MIC, Enterococcus faecium isolate 11 ([1]; clinical isolate 11, broth microdilution, MHB II, 37 °C, 24 h, daptomycin with 50 µg/mL Ca2+, mean of two independent experiments): 32 µg/mL
MIC, Enterococcus faecium isolate 12 ([1]; clinical isolate 12, broth microdilution, MHB II, 37 °C, 24 h, daptomycin with 50 µg/mL Ca2+, mean of two independent experiments): 64 µg/mL
MIC, Enterococcus faecium isolate 13 ([1]; clinical isolate 13, broth microdilution, MHB II, 37 °C, 24 h, daptomycin with 50 µg/mL Ca2+, mean of two independent experiments): 32 µg/mL
MIC, Enterococcus faecium isolate 14 ([1]; clinical isolate 14, broth microdilution, MHB II, 37 °C, 24 h, daptomycin with 50 µg/mL Ca2+, mean of two independent experiments): 32 µg/mL
MIC, Enterococcus faecium isolate 15 ([1]; clinical isolate 15, broth microdilution, MHB II, 37 °C, 24 h, daptomycin with 50 µg/mL Ca2+, mean of two independent experiments): 64 µg/mL
MIC, Enterococcus faecium isolate 16 ([1]; clinical isolate 16, broth microdilution, MHB II, 37 °C, 24 h, daptomycin with 50 µg/mL Ca2+, mean of two independent experiments): 32 µg/mL
MIC, Enterococcus faecium isolate 17 ([1]; clinical isolate 17, broth microdilution, MHB II, 37 °C, 24 h, daptomycin with 50 µg/mL Ca2+, mean of two independent experiments): 64 µg/mL
MIC, Enterococcus faecium isolate 18 ([1]; clinical isolate 18, broth microdilution, MHB II, 37 °C, 24 h, daptomycin with 50 µg/mL Ca2+, mean of two independent experiments): 32 µg/mL
MIC, Enterococcus faecium isolate 19 ([1]; clinical isolate 19, broth microdilution, MHB II, 37 °C, 24 h, daptomycin with 50 µg/mL Ca2+, mean of two independent experiments): 64 µg/mL
MIC, Enterococcus faecium isolate 20 ([1]; clinical isolate 20, broth microdilution, MHB II, 37 °C, 24 h, daptomycin with 50 µg/mL Ca2+, mean of two independent experiments): 64 µg/mL
MIC, Enterococcus faecium isolate 21 ([1]; clinical isolate 21, broth microdilution, MHB II, 37 °C, 24 h, daptomycin with 50 µg/mL Ca2+, mean of two independent experiments): > 64 µg/mL
MIC, Enterococcus faecium isolate 22 ([1]; clinical isolate 22, broth microdilution, MHB II, 37 °C, 24 h, daptomycin with 50 µg/mL Ca2+, mean of two independent experiments): 64 µg/mL
MIC, Enterococcus faecium isolate 23 ([1]; clinical isolate 23, broth microdilution, MHB II, 37 °C, 24 h, daptomycin with 50 µg/mL Ca2+, mean of two independent experiments): > 64 µg/mL
MIC, Enterococcus faecium isolate 24 ([1]; clinical isolate 24, broth microdilution, MHB II, 37 °C, 24 h, daptomycin with 50 µg/mL Ca2+, mean of two independent experiments): > 64 µg/mL
MIC, Enterococcus faecium isolate 25 ([1]; clinical isolate 25, broth microdilution, MHB II, 37 °C, 24 h, daptomycin with 50 µg/mL Ca2+, mean of two independent experiments): > 64 µg/mL
MIC, Enterococcus faecium isolate 26 ([1]; clinical isolate 26, broth microdilution, MHB II, 37 °C, 24 h, daptomycin with 50 µg/mL Ca2+, mean of two independent experiments): > 64 µg/mL
MIC, E. faecalis ATCC29212 [2]: 0.5 µg/mL
Compound: teicoplanin

Compound: CCCCCCCCCC(=O)N[C@@H](Cc1c[nH]c2ccccc12)C(=O)N[C@H](CC(N)=O)C(=O)N[C@@H](CC(=O)O)C(=O)N[C@@H]1C(=O)NCC(=O)N[C@@H](CCCN)C(=O)N[C@@H](CC(=O)O)C(=O)N[C@H](C)C(=O)N[C@@H](CC(=O)O)C(=O)NCC(=O)N[C@H](CO)C(=O)N[C@@H]([C@H](C)CC(=O)O)C(=O)N[C@@H](CC(=O)c2ccccc2N)C(=O)O[C@@H]1C [Daptomycin, daptomycin]
MIC50 ([1]; 24 h): 8 µg/mL (≈ 4.94 µM)
MIC90 ([1]; 24 h): 8 µg/mL (≈ 4.94 µM)
MIC Range ([1]; 24 h): 8 to 16 µg/mL
MIC, Enterococcus faecium isolate 1 ([1]; 24 h): 8 µg/mL (≈ 4.94 µM)
MIC, Enterococcus faecium isolate 2 ([1]; 24 h): 8 µg/mL (≈ 4.94 µM)
MIC, Enterococcus faecium isolate 3 ([1]; 24 h): 8 µg/mL (≈ 4.94 µM)
MIC, Enterococcus faecium isolate 4 ([1]; 24 h): 8 µg/mL (≈ 4.94 µM)
MIC, Enterococcus faecium isolate 5 ([1]; 24 h): 8 µg/mL (≈ 4.94 µM)
MIC, Enterococcus faecium isolate 6 ([1]; 24 h): 8 µg/mL (≈ 4.94 µM)
MIC, Enterococcus faecium isolate 7 ([1]; 24 h): 8 µg/mL (≈ 4.94 µM)
MIC, Enterococcus faecium isolate 8 ([1]; 24 h): 8 µg/mL (≈ 4.94 µM)
MIC, Enterococcus faecium isolate 9 ([1]; 24 h): 8 µg/mL (≈ 4.94 µM)
MIC, Enterococcus faecium isolate 10 ([1]; 24 h): 8 µg/mL (≈ 4.94 µM)
MIC, Enterococcus faecium isolate 11 ([1]; 24 h): 8 µg/mL (≈ 4.94 µM)
MIC, Enterococcus faecium isolate 12 ([1]; 24 h): 8 µg/mL (≈ 4.94 µM)
MIC, Enterococcus faecium isolate 13 ([1]; 24 h): 8 µg/mL (≈ 4.94 µM)
MIC, Enterococcus faecium isolate 14 ([1]; 24 h): 8 µg/mL (≈ 4.94 µM)
MIC, Enterococcus faecium isolate 15 ([1]; 24 h): 8 µg/mL (≈ 4.94 µM)
MIC, Enterococcus faecium isolate 16 ([1]; 24 h): 8 µg/mL (≈ 4.94 µM)
MIC, Enterococcus faecium isolate 17 ([1]; 24 h): 8 µg/mL (≈ 4.94 µM)
MIC, Enterococcus faecium isolate 18 ([1]; 24 h): 8 µg/mL (≈ 4.94 µM)
MIC, Enterococcus faecium isolate 19 ([1]; 24 h): 8 µg/mL (≈ 4.94 µM)
MIC, Enterococcus faecium isolate 20 ([1]; 24 h): 8 µg/mL (≈ 4.94 µM)
MIC, Enterococcus faecium isolate 21 ([1]; 24 h): 8 µg/mL (≈ 4.94 µM)
MIC, Enterococcus faecium isolate 22 ([1]; 24 h): 8 µg/mL (≈ 4.94 µM)
MIC, Enterococcus faecium isolate 23 ([1]; 24 h): 8 µg/mL (≈ 4.94 µM)
MIC, Enterococcus faecium isolate 24 ([1]; 24 h): 16 µg/mL (≈ 9.87 µM)
MIC, Enterococcus faecium isolate 25 ([1]; 24 h): 16 µg/mL (≈ 9.87 µM)
MIC, Enterococcus faecium isolate 26 ([1]; 24 h): 8 µg/mL (≈ 4.94 µM)
MIC, E. faecalis ATCC29212 [2]: 4 µg/mL (≈ 2.47 µM)

Compound: O=C(O)c1cn(C2CC2)c2cc(N3CCNCC3)c(F)cc2c1=O [Ciprofloxacin]
MIC [3]: 2 µg/mL (≈ 6.04 µM)
